The source of these data is US20260144251A1, “ANTIMICROBIAL NANOCLAYS COMPRISING CATIONIC ANTIMICROBIALS, METHOD OF PREPARATION AND USES THEREOF” (Polyamyna Nanotech Inc., priority 2019, published 2026).

In brackets after ≈: the same amount, converted by molar mass. Where two headings read alike, the source gives them in different places.

Holding throughout (test): MIC, microbroth dilution method
(In broth dilution the organism is exposed to a series of concentrations in liquid medium.)

Assay [1] relates to A. baumannii (AB034). The class given is cell-based. The method, then:
(§1) The antimicrobial activity (minimum inhibitory concentration, MIC) was evaluated by employing microbroth dilution method to determine the lowest concentration of the assayed antimicrobial additive material.

Assay [2] has as its system E. cloacae (EB5). The assay is classed as cell-based. Here is the method:
as §1

The test system of assay [3] is E. coli (K12). The class given is cell-based. The method, then:
as §1

In assay [4] the test system is K. pneumoniae (KP001). The class given is cell-based. The method, then:
as §1

Assay [5] has as its system P. aeruginosa (PA07). The class given is cell-based. The method, then:
as §1

The subject of assay [6] is MRSA (SA001). The assay is classed as cell-based, Staphylococcus aureus. Here is the method:
as §1

In assay [7] the test system is A. baumannii (AB30). The assay is classed as cell-based. The method, then: as §1
In assay [8] the test system is E. coli (E524). The class given is cell-based. Particulars: Escherichia coli. The method, then:
as §1

Assay [9] concerns MRSA (SA004). The class given is cell-based, Staphylococcus aureus. The method, then:
as §1

Take `[Ag]` [Ag, Silver]: the MIC in [1] came out at 8 µg/mL; in [2] it was 32 µg/mL; in [3], 2 µg/mL; in assay [4], 8 µg/mL; in assay [5], 2 µg/mL; in [6] it was 8 µg/mL.
For the compound `[H]/N=C(\N/C(=N/[H])NCCCCCCNC(=N)NC(=N)Nc1ccc(Cl)cc1)Nc1ccc(Cl)cc1` [Chlorhexidine], the MIC was 256 µg/mL (≈ 506 µM) in assay [7] (Acinetobacter baumannii, read-out: MIC); 8 µg/mL (≈ 15.8 µM) in [2] (Enterobacter cloacae, read-out: MIC); 2 µg/mL (≈ 3.96 µM) in assay [8]; under 0.5 µg/mL in [4] (Klebsiella pneumoniae, read-out: MIC); 16 µg/mL (≈ 31.7 µM) in assay [5] (Pseudomonas aeruginosa, read-out: MIC); 8 µg/mL (≈ 15.8 µM) in assay [9] (Staphylococcus aureus, read-out: MIC).
As for Benzalkonium chloride [BAC], the MIC was determined as 2 µg/mL in assay [1]; 8 µg/mL in assay [2]; 16 µg/mL in assay [3]; 4 µg/mL in [4]; 32 µg/mL in assay [5]; 1 µg/mL in [6].
Take Neomycin: the MIC is 8 µg/mL in assay [7], 4 µg/mL in [2], 128 µg/mL in [5] and 4 µg/mL in [9].

What is called MIC is the least concentration at which growth counts as inhibited.
